These results are taken from a melting point compilation (Tetko et al.).

As usually defined, the melting point is the temperature, or range, at which the solid turns liquid.

On to `Cc1ccc(C(=O)CCC(=O)O)cc1`, for which the melting point turned out to be 129 °C. Next, `Clc1ccc2c(c1)c1cc(Cl)ccc1n2CC1CO1` (stereo unspecified): 143 to 144 °C; `O=C(NC(=O)c1c(F)cccc1F)Nc1ccc(Oc2ccc(C(F)(F)F)cc2Cl)cc1F`: 167 °C; `COc1cccc2c1C(=O)c1c(O)c3c(c(O)c1C2=O)CC(O)(C(C)=O)CC3OC1CC(N)C(O)C(C)O1` (stereo unspecified): 208 °C.

For `CC(C)(C)OC(=O)NC(Cc1ccncc1)C(=O)O` (stereo unspecified), the melting point is 225 to 229 °C.

Take `Oc1ccc2cc[nH]c2c1`: the melting point lay within 124 to 130 °C.

The compound `Cc1c2ccccc2c(C)c2ccccc12` came in with a melting point of 183 °C. The same measure for `C1CCC2OCCOCCOC3CCCCC3OCCOCCOC2C1` (stereo unspecified): 66 to 70 °C; for `CC(C)(C)C(=O)OCOc1ccccc1C(N)=O`: 95 °C; for `Cn1ccc2cc(N=C=O)ccc21`: 42.5 to 44.5 °C. Regarding `CCOC(=O)C1=C(C)N=c2cc3c(cc21)=C(C(=O)OCC)C(C)=N3`, the melting point was 342 °C. The same measure for `COP(=S)(OC)Oc1ccc(C#N)cc1`: 14.5 °C; for `O=C(O)c1ccc(C(F)(F)F)cc1F`: 168 °C. Next, `C[C@@H]1C(=O)[C@]23C[C@H]1CC[C@H]2[C@@]1(CCC[C@@]2(C)COC(=O)[C@H]21)COC3=O`: 297 °C; `CCOC=Nc1c(C#N)cnn1-c1ncnc2c1cnn2C`: 155 °C. Next, `O=C1OC(CO)C(O)C1O` (stereo unspecified): 83 to 85 °C.

In the case of `O=C(c1ccc([N+](=O)[O-])cc1)c1noc(-c2ccc(Br)cc2)c1S(=O)(=O)c1ccccc1`, the melting point was 178 °C. Next, `CC(=O)OCC(=O)C1CCC2C3CC=C4CC(O)CCC4(C)C3CCC12C` (stereo unspecified): 184 °C. Turning to `CN(C)C(=O)OC1N=C(c2ccccc2)c2cc(Cl)ccc2N(C)C1=O` (stereo unspecified), the melting point turned out to be 174 °C. `COc1ccn(C)c(=O)c1C#N` had a melting point of 202 °C. `OCc1ccccc1O[C@@H]1O[C@H](CO)[C@@H](O)[C@H](O)[C@H]1O` displayed a melting point of 198 to 200 °C. Next, `CC1CCc2cc3c(cc2N1)CCC(C)N3` (stereo unspecified): 125 to 134 °C.

Compound `O=C(Nc1nccs1)C(C(F)(F)F)C(F)(F)F` showed a melting point of 148 °C.

The compound `CC(O)(C(=O)c1ccccc1)c1ccccc1` (stereo unspecified) displayed a melting point of 65 °C. With `CC(CO)C1CCC2C3CCC4=CC(=O)C=CC4(C)C3CCC12C` (stereo unspecified), the melting point lay within 178 to 184 °C. The same measure for `CC1(C)CCCC(C)(C)N1`: 28 °C. The same measure for `O=C(O)C(O)C(F)(F)F` (stereo unspecified): 69 °C. Next, `Fc1cccc(C(F)(F)F)c1`: -81.5 °C; `COc1ccccc1C(C)O` (racemic): 37 to 39 °C; `c1ccc(O[Si]23OCCN(CCO2)CCO3)cc1`: 218 °C.

Compound `O=[N+]([O-])c1ccc2c(c1)OCCOCCOCCOCCO2` returned a melting point of 95 to 98 °C.

`COc1ccc(O)c(C=O)c1`: the melting point was found to be 14.5 °C. The same measure for `N#CC1=C(N)Oc2c(c(C(F)(F)F)nn2-c2ccccc2)C1c1ccccc1Cl` (stereo unspecified): 166 °C; for `CNC(=O)CC#N`: 82 to 84 °C.

The compound `Cc1ccc(-c2onc(C(=O)c3cccs3)c2S(=O)(=O)c2ccccc2)cc1` showed a melting point of 128 °C. The same measure for `C[Si](O)(c1ccccc1)c1ccccc1`: 167 °C; for `O=C(c1ccc(Cl)cc1)c1noc(-c2cccc3ccccc23)c1S(=O)(=O)c1ccccc1`: 150 °C; for `CC(=O)c1ccc(O)c(C)c1O`: 154 °C. Next, `COc1ccc(C(C)=O)cc1Cl`: 75 °C; `CCOC(=O)CNc1cc(Cl)c([N+](=O)[O-])cc1[N+](=O)[O-]`: 146 °C. Next, `O=C(O)c1cncc(-c2cccs2)c1`: 261 °C; `COc1ccc2c(=O)n3c(cc2c1)CCCC3`: 80 °C; `COc1ccc(-c2csc(/C(C#N)=N\Nc3ccc(Br)cc3)n2)cc1`: 196 °C. The compound `COC(=O)c1ccccn1` had a melting point of 18.7 °C. The compound `CN(O)C(=O)Cc1ccc(OCc2ccccc2)cc1` had a melting point of 96 °C.

The compound `CCOC(=O)c1cc2cccc([N+](=O)[O-])c2[nH]1` showed a melting point of 90 to 96 °C.

Consider `N#CCN1CCCCC1`, for which the melting point amounted to 25 °C. Next, `C#CC1(O)CCC2C3CC=C4CC(O)CCC4(C)C3CCC21C` (stereo unspecified): 248 °C. Next, `CC(C)(C)c1ccc(C2CCC3(CC2)Cc2ccc(C(=O)Nc4ccccc4OCCCC(=O)O)cc2C3)cc1` (stereo unspecified): 150 °C.

Consider `CCCCCCCCCCCCCCCC(OC)OC`, for which the melting point worked out at 10 °C. The same measure for `CCC(=O)OC(Cc1ccccc1)(c1ccccc1)C(C)CN(C)C` (stereo unspecified): 75 °C; for `O=[N+]([O-])c1cccc(F)c1O`: 92.5 °C; for `Cc1cc(Br)c(N)c(Br)c1`: 74 °C. The same measure for `O=C1OC(c2ccccc2)=NC1=Cc1ccc(Cl)cc1Cl`: 180 °C. Compound `O=C1CC2C(CC(OC(=O)c3ccccc3)C2COC(c2ccccc2)(c2ccccc2)c2ccccc2)O1` (single isomer, unassigned; (-)) returned a melting point of 183 to 185 °C. The same measure for `COc1ccc(C2Nn3c(nnc3-c3cccc([N+](=O)[O-])c3)S2)cc1` (stereo unspecified): 206 °C; for `O=P(OC(CCl)CCl)(OC(CCl)CCl)OC(CCl)CCl`: 27 °C; for `ClC1OCCOC1Cl` (stereo unspecified): 30 °C.

For `C[C@H](CCC(=O)O)[C@H]1CC[C@H]2[C@@H]3CC[C@H]4CC(=O)CC[C@]4(C)[C@H]3CC[C@]12C`, the melting point worked out at 189 °C. `Nc1ccc([N+](=O)[O-])cc1C(=O)O` gave a melting point of 278 °C. Next, `CC(=O)OC1CCC2(C)C3CCC4=C(CCC4(C)C#CCl)C3CCC2(C)C1` (stereo unspecified): 109 to 110 °C; `CC(=O)Oc1ccc2cc(OC(C)=O)ccc2c1`: 215 °C.

`COC(=O)c1ccsc1N`: the melting point turned out to be 79 °C. Next, `CC(C)NC(C)C`: -61 °C; `Nc1ccc2c(n1)[nH]c1ccccc12`: 202 °C.

In turn, `Clc1cccc(Cl)c1I` showed a melting point of 64 to 67 °C. The same measure for `CCOC(=O)c1nnn2c1nc(S)c1ccccc12`: 171 to 172 °C. In turn, `COC(=O)C1CC(=O)N(C)C1` (stereo unspecified) had a melting point of 15 °C. The same measure for `N#Cc1ccc(O)c(F)c1F`: 147 °C. Take `COc1ccc(C(=NCc2ccccc2)c2ccc(OC)cc2)cc1`: the melting point amounted to 90 °C. Next, `O=[N+]([O-])c1cc2c(cc1CO)OCO2`: 123 °C. `Cc1[nH]c2ccc(C(=O)O)cc2c1C` yielded a melting point of 239 to 242 °C. `BrCCCCCCCCCCCCCCBr` displayed a melting point of 50.4 °C. The same measure for `CCCC(C)C1(CC)C(=O)NC(=S)NC1=O` (stereo unspecified): 130 °C; for `CC(C)(C)OC(=O)N1CCN(Cc2ccc(CO)cc2)CC1`: 52 to 53 °C; for `Cc1ccc2c(c1Cl)C(=O)c1ccccc1C2=O`: 170 °C. `CCN(CC)c1nc(Cl)nc(N(CC)CC)n1`: the melting point came out at 27 °C. The same measure for `CCOC(=O)c1c(SC)nn(C(=O)c2cccc([N+](=O)[O-])c2)c1N`: 153 °C; for `OCc1ncoc1-c1ccccc1`: 95 to 97 °C; for `Nc1c(Br)cc(Br)cc1C(=O)O`: 235 to 236 °C. The same measure for `CCOC(=O)c1cc(C(=O)OCC)cc(C(=O)OCC)c1`: 134 °C; for `Cn1nnc2cc(C(=O)Cl)ccc21`: 125 to 126 °C.

As to `NC(=O)c1ccc(F)c(F)c1`, the melting point worked out at 134 °C. The same measure for `O=C(C=Cc1ccccc1)n1ccnc1`: 127 to 133 °C; for `CC1(C)CC(=O)C(=Cc2ccc(-c3ccc(Cl)cc3)o2)C(=O)C1`: 206 °C. Next, `O=C(O)C[C@H](NC(=O)OCC1c2ccccc2-c2ccccc21)c1ccccc1`: 187 °C; `O=Cc1csc(-c2ccc(C(F)(F)F)cc2)n1`: 103 to 105 °C. Next, `O=CF`: -142 °C; `O=C(OC(=O)C(Cl)Cl)C(Cl)Cl`: 29 °C.

Take `NC(=S)c1c[nH]cn1`: the melting point fell in the range of 205 to 207 °C. Next, `S=C=Nc1ccccc1Br`: 20 °C.

Regarding `CC(=O)c1cc(-c2c(Cl)cccc2Cl)no1`, the melting point was 117 to 119 °C.

The compound `COc1ccc2cc(Br)ccc2c1CC#N` displayed a melting point of 147 to 148 °C. The same measure for `O=C1CCN2C(=O)c3ccccc3CC2C1` (stereo unspecified): 126 °C; for `O=C1NC(=O)C(=NNc2ccccc2)C(=O)N1`: 309 to 310 °C; for `NC(CC(=O)O)C1CCCCC1` (stereo unspecified): 234 to 235 °C. As to `CC(=O)CCc1ccc(O)cc1`, the melting point fell in the range of 82 to 84 °C. Next, `COC(=O)C1(C(=O)OC)Cc2cc(C)ccc2C(=O)O1`: 135 to 136 °C; `O=C(Nc1ccccn1)C(F)(F)C(F)(F)C(F)(F)C(F)(F)C(F)(F)C(F)(F)C(F)(F)C(F)(F)F`: 66 °C; `CC(=O)CC(=O)c1ccc2ccccc2c1`: 78 °C. Next, `Cc1occc1C(=O)CC#N`: 95 to 97 °C; `Cc1cc(CC(=O)O)n(C)c1C(=O)c1ccc(Cl)cc1`: 178 °C; `CC(=CC(=O)O)C(F)(F)F`: 28 to 30 °C. The same measure for `CP(=O)(c1ccccc1)c1ccccc1`: 113 °C; for `O=C(c1cccs1)c1coc(-c2ccc(Cl)cc2)c1S(=O)(=O)c1ccccc1`: 115 °C; for `OCc1ccccc1S`: 32 °C.
